These results are taken from US8232101B2, “Identification of antigenic peptides from multiple myeloma cells” (Janssen Pharmaceutica N.V., priority 2009, dated 2012).

Test [1] concerns the target T1, HLA-A2 molecules in T2 cells (Homo sapiens, UniProt P04439, D140Y/D185E/D98H/E176V/E277Q/G131W/G231S/I119V/I121R/I166T/I218V/L300P/L318F/N151K/N90K/P208A/P217A/Q86G/Q94H/R138H/R169H/T345S).
T1 construct: HLA-A2 molecules that are synthesized in a transporter associated with antigen processing (TAP)-deficient cell line, T2; host or cells: T2 cells (TAP-deficient human cell line)
The test can be described thus: HLA-A2 Stabilization Assay (peptide binding, T2 cells, flow cytometry). Set-up: key: Strong (S); Median (M); Weak (W); None (N). The text has this: The assay for peptide binding to class I major histocompatibility complex (MHC/HLA-A2) molecules is based on the ability of peptides to stabilize MHC class I, HLA-A2 molecules that are synthesized in a transporter associated with antigen processing (TAP)-deficient cell line, T2 (ATCC® Number: CRL-1992). The extent of stabilization of MHC class I molecules is directly related to the binding affinity of the added peptides (Townsend et al., Cell. 1990 Jul. 27; 62(2):285-95; Andersen et al., Tissue Antigens. 1999 August; 54(2):185-90).
For the assay, T2 cells were plated in 96-well V-bottom plates, 100 ul/well RPMI media, at a density of 1×10^6 cells/ml, with final peptide concentrations of 200 uM, 20 uM, 2 uM, 200 nM, 20 nM, 2 nM, and no peptide as negative control. The cells with peptides were incubated for 18 hours at 26° C., 5% CO2. After 18 hours, the plates were transferred to 37° C., 5% CO2 and incubated for an additional 3 hours. The cells in plate were washed once with FACS buffer (PBS, 2.5% FCS, 1% NaN3) and then stained by adding 1 ul/well FITC-labeled mouse anti-human HLA-A2 antibody (BD Pharmingen, Cat. No. 551285), 1 ul/well PI, and then incubating at 4° C. for 30 minutes. After staining, cells were resuspended in 200 ul of FACS buffer and transferred from 96-well plates to racks of 96 microtubes. Samples were run on a FACScan flow cytometer and the data were analysed by using CellQuest software.
A peptide of Hepatitis B Core protein (HBC) was used as a positive control. The Hepatitis B Core peptide is a potent HLA-A2.1 epitope and consists of residue numbers 18-27 of the core sequence, amino acids […] (SEQ ID NO:73) (Zhang et al. Immunology. 2007, 121(1):105-12).

Test [2] relates to T2 cells loaded with individual peptides. The test can be described thus: 51Cr Release Assay for activity of CTL generated with peptide-loaded Drosophila aAPC. Particulars: for Ability to induce CTL in normal donors: truncated and computer predicted peptides. Further details: key to CTL Activity: Strong (S); Median (M); Weak (W); None (N). Type of test: cell-based, human. The protocol:
Drosophila aAPC were generated from Schneider S2 cells (S2 cells), which were originally established in 1969 from several hundred Oregon-R (wild type) Drosophila melanogaster (Oregon-R) embryos (American Type Culture Collection (ATCC) CRL-1963) according to published procedures (Schneider, J. Embryol. Exp. Morph. 1972 Vol 27, pp. 353-365), and deposited in the ATCC(CRL10974). S2 cells are grown in commercial Schneider's Drosophila medium supplemented with 10% heat-inactivated fetal bovine serum. In order to generate aAPCs, human complementary DNAs (cDNAs) for HLA-A2.1, B7.1, LFA-3, ICAM-1 and CD70, were individually inserted into the pRmHa-3 vector and S2 cells were transfected using the calcium phosphate precipitation method with a mixture of HLA-A2.1, B7.1, LFA-3, ICAM-1 and CD70 plasmid DNAs (for aAPC clone 1120) and the phshneo plasmid. (see U.S. Pat. No. 6,225,042 regarding construction and use of pRMHa plasmid vectors). The human cDNAs were prepared using standard techniques by reverse transcription-PCR using primers derived from the published sequences for HLA-A2.1 from K562 cells, B7.1 from K562 cells, LFA-3 from HL60 cells, ICAM-1 from K562 cells, and CD70 from HLA-A2.1+LCL cells. K562 cells are a human erythroleukemic cell line, HL60 cells are a promyelocytic leukemia human cell line, and HLA-A2.1+LCL cells are an Epstein-Barr virus (EBV)-transformed lymphoblastoid cell line (LCL). Stably transfected cells were selected by culturing in Schneider's medium containing geneticin. Prior to scale up of the cells, expression of the transfected genes is induced by the addition of CuSO4. The level of expression is assessed by flow cytometry using anti-HLA-A2.1, anti-B7.1, anti-LFA-3, anti-ICAM-1 and CD70 antibodies. For efficient in vitro activation of the CD8+ lymphocytes, greater than 30% of the Drosophila cells must express the HLA-A2.1 molecule. The Drosophila cells regularly express each of the molecules at levels between 70-90%. Drosophila aAPC were washed and then incubated at RT for 4 hours with 10 μM of different combinations of mixed peptides or individual peptides (See e.g. U.S. Pat. Nos. 6,225,042, 6,355,479, 6,362,001 and 6,790,662; U.S. Patent Application Publication Nos. 2009/0017000 and 2009/0004142; and International Publication No. WO2007/103009). Purified human CD8+ T cells from HLA-A2 positive donors were then incubated with peptide-loaded Drosophila APC at 37° C., 5% CO2, for 5 days. Human IL-2 (20 U/ml, R&D Systems) and IL-7 (30 U/ml, R&D Systems) were added at day 5 and the activated CD8+ T cells (CTL) were re-stimulated twice, at day 7 and day 15, with non-CD8 adherent cells in a total peripheral blood mononuclear cell (PBMC) preparation from the same donor in the presence of peptides.
A number of different CTL were generated using CD8+ T cells from different donors and different combinations of mixed peptides, including combinations that contained only one peptide. For example, 24 selected peptides were mixed or used individually to create different combinations of peptide mixtures (PM) or individual peptides (P5 and P14) and produce peptide-loaded Drosophila APC. The resulting peptide-loaded Drosophila APC were incubated with CD8+ T cells from 2 different donors (Donor 1 and Donor 2) to produce 11 different batches of CTL (Donor 1: PM1, PM2, PM3, PM4, and P14; Donor 2: PM1, PM2, PM3, PM4, P5, and P14) (Table 3).
CTL (Effector) activity was measured with a standard chromium (^51Cr) release assay, with T2 cells (Target) loaded with individual peptides and also with a number of tumor cell lines as target cells (Brunner et al., Immunology. 1968 February; 14(2):181-96). The highest Effector (E) Target (T) ratio (E/T) was 50:1, with 1:5 serial dilutions of CTL (Effector) used to produce a dose response. Before the assay, Target cells (T2 cells at 3×10^6 cells/100 ul in 1×PBS with 4% FCS) were labeled by adding 100 ul of ^51Cr (Perkin Elmer) and incubating at 37° C. for 1 hour. […]

With “NLLELVHLL (listed as Homo sapiens) [Peptide P3-9]”, the “HLA-A2 Binding” value in test [1] (computer predicted peptides) is listed as “S”. For the same substance, in test [2], the “Ability to induce CTL in normal donors” value was “able to induce CTL”.
Take “LVDLPGM (listed as Homo sapiens) [Peptide P13-13]”: the “HLA-A2 Binding” value in test [1] (truncated versions of P3, P13, P14) is listed as “M”. Also, in test [2] (CTL generated with truncated peptides, T2 targets loaded with individual peptides), the “CTL Activity” value is reported as “W”. In test [2], the “Ability to induce CTL in normal donors” value was “able to induce CTL”.
